This is an account of results in patent publication US20250084039A1, “4-SUBSTITUTED AMINOISOQUINOLINE DERIVATIVES” (Purdue Research Foundation, priority 2016, published 2025).

One may read the Kd as the constant that tells how readily two partners part at equilibrium.

In assay [1] the test system is MV4-11. In words: Proliferation inhibition screen at 100 nM. Format: cell-based. Conditions: 100 nM compound, FIG. 10. How it is done: To determine inhibition at 100 nM or […], 96-well plates were seeded the afternoon before treatment. Plates were then treated with compound diluted in dimethyl sulfoxide (DMSO) as well as a DMSO control the following day for 72 hours. After this time the plates were then treated with 10 μL of CellTiter-Blue Cell Viability Assay (Promega, Madison, WI) for 4 hours. Then the plates were read on a plate reader (Bio-Tek, Winooski, VT). Data was analyzed on Excel as a percent of the DMSO vehicle.
From these cell proliferation studies, MV4-11 appeared to be more sensitive to the compounds than the other cell lines (Table 6A). […] To identify group of compounds potently inhibiting cancer cell proliferation, a lower concentration of compounds (100 nM) were used to screen against MV4-11 (FIG. 10). From these experiments, potent amide compounds A7, A10, A15, A16, A18, A20, B15 and D30 (as indicated by ***, FIG. 10) were selected. […] Typically amides that contain basic amines are included in compound libraries to improve aqueous solubility but it appears that the presence of a basic amine in the side chain of the compounds also facilitated the actual inhibition of MV4-11 proliferation.

Assay [2] has as its target FLT3 (ITD, F691L) (Homo sapiens, UniProt P36888, F691L/ITD). The assay can be described thus: DiscoverX Kd Elect binding. The note with it: read-out: Kd FLT3 (ITD, F691L).
Assay [3] deals with NCI H1703 (NSCLC). The assay can be described thus: Activity against lung cancer cell line. Conditions: Homo sapiens, NCI-H1703. Format: cell-based.
In assay [4] the target is FLT3 (ITD) (Homo sapiens, UniProt P36888, ITD). The assay can be described thus: DiscoverX Kd Elect binding. The note with it: read-out: Kd FLT3 (ITD). The source says: Although the current drugs on the market or in clinical trials are relatively successful in killing the AML leukemia cells, they currently are unable to deal with secondary mutations that occur after TKI treatment, such as FLT3 ([…]).

Assay [5] relates to MV4-11. The assay can be described thus: IC50 determination (proliferation assay, CellTiter-Blue). Format: cell-based. The note with it: for IC50: Homo sapiens, MV4-11. How it is done: (§1) Cell lines were seeded into 96-well plates the afternoon prior to treatment. Approximately 18 hours later, compounds were diluted in dimethyl sulfoxide (DMSO) and added to cells. Plates were incubated for 72 hours and cells viability determined with CellTiter-Blue Cell Viability Assay (Promega, Madison, WI). Plates were read after 4 additional hours of incubation at 37° C. using plate reader (Bio-Tek, Winooski. VT). Data was analyzed and graphed using GraphPad Prism Software (Graphpad. La Jolla, CA). […]
A general note: Resazurin is reduced to fluorescent resorufin, in cell work by metabolically active cells.

Assay [6] deals with MOLM14. The description is as above. Format: cell-based. Conditions: Homo sapiens, MOLM-14. As to the method: as §1
Assay [7] concerns K562. The assay can be described thus: IC50 proliferation assay (Alamar Blue, 72 h). Type of assay: cell-based. The note with it: Homo sapiens. As to the method: (§2) IC50 proliferation assay—Cell lines and primary cells were seeded into 96-well plates the afternoon prior to treatment. Approximately 18 hours later, compounds were semi-serially diluted in dimethyl sulfoxide (DMSO) and then growth medium, and added to cells. Plates were incubated for 72 hours prior to addition of Alamar Blue (Life Technologies, Carlsbad, CA). Plates were read after 4 additional hours of incubation at 37° C. using a Bio-Tek Synergy HT plate reader (Bio-Tek, Winooski, VT). Data was analyzed and graphed using GraphPad Prism Software (Graphpad, La Jolla. CA).
(§3) IC50 (proliferation inhibition) against leukemia cell lines MV4-11 and K562. […] MiaPaca-2 (Pancreatic cell line), HLY-1 (Lymphoma cell line), MV4-11 (AML, cell line) and K562 (CML cell line).

The test system of assay [8] is MV4-11. The assay can be described thus: IC50 proliferation assay (Alamar Blue, 72 h). Format: cell-based. The note with it: Homo sapiens, MV4-11, 72 h; read-out: IC50 (proliferation inhibition) Cell line - MV4-11. How it is done: as §2, §3
The subject of assay [9] is MV-4-11. In words: Proliferation inhibition at single concentration (CellTiter-Blue). Type of assay: cell-based. The note with it: Homo sapiens, MV4-11; 1 μM compound; read-out: Percent inhibition of proliferation MV-4-11.
Assay [10] concerns HCT116. The description is as above. Conditions: Homo sapiens, HCT-116; 1 μM compound; read-out: Percent inhibition of proliferation HCT116. Format: cell-based.
For assay [11], the target named is FLT3 (Homo sapiens (Human), UniProt P36888). In words: Reaction Biology HotSpot kinase assay. Type of assay: biochemical. The note with it: 500 nM compound; for inhibition at 0.5 µM: read-out: % inhibition of FLT3 activity. How it is done:
(§4) The Reaction Biology Corporation (www.reactionbiology.com, Malvern, PA) HotSpot assay platform was used to measure kinase/inhibitor interactions exactly as previously described. Kinase and substrate were mixed in a buffer containing 20 mM HEPES pH 7.5, 10 mM MgCl2, 1 mM EGTA, 0.02% Brij35, 0.02 mg/mL BSA, 0.1 mM Na3VO4, 2 mM DTT and 1% DMSO. Single-dose of compounds (500 nM) were then added to each reaction mixture. After 20-minute incubation. ATP (Sigma) and [γ-^33P] ATP (Perkin Elmer) were added at a final total concentration of 100 μM for addition 2 hours at room temperature, followed by spotting onto P81 ion exchange cellulose chromatography paper (Whatman, Inc.). […] Percent remaining kinase activity of a vehicle (DMSO) containing kinase reaction was calculated for each kinase/inhibitor pair using Prism 5 (GraphPad).
as §4, with “1” for “DTT”, “incubation,” for “incubation.”

The target in assay [12] is FGFR1 (Homo sapiens (Human), UniProt P11362). In words: Reaction Biology HotSpot kinase assay. Format: biochemical. Conditions: 500 nM compound; read-out: Percentage kinase inhibition FGFR1. How it is done: as §4
as §4, with “1” for “DTT”, “incubation,” for “incubation.”

Assay [13] addresses RET (Homo sapiens (Human), UniProt P07949). In words: Reaction Biology HotSpot kinase assay. Conditions: 500 nM compound; read-out: Percentage kinase inhibition RET. Format: biochemical. How it is done: as §4
as §4, with “1” for “DTT”, “incubation,” for “incubation.”

The target of assay [14] is c-kit (Homo sapiens (Human), UniProt P10721). In words: Reaction Biology HotSpot kinase assay. Type of assay: biochemical. Conditions: 500 nM compound, 100 μM radiolabeled ATP. How it is done:
as §4
as §4, with “1” for “DTT”, “incubation,” for “incubation.”

The target in assay [15] is c-Src (Homo sapiens (Human), UniProt P12931). In words: Reaction Biology HotSpot kinase assay. Format: biochemical. Conditions: 500 nM compound; read-out: Percentage kinase inhibition c-Src. As to the method: as §4
as §4, with “1” for “DTT”, “incubation,” for “incubation.”

The target in assay [16] is TRKC (Homo sapiens (Human), UniProt Q16288). The assay can be described thus: Reaction Biology HotSpot kinase assay. Type of assay: biochemical. Conditions: 500 nM compound, 100 μM radiolabeled ATP. As to the method:
as §4
as §4, with “1” for “DTT”, “incubation,” for “incubation.”

Assay [17] has as its system MCF-7. In words: Proliferation inhibition at single concentration (CellTiter-Blue). Type of assay: cell-based. The note with it: Homo sapiens, MCF7; 1 μM compound; read-out: Percent inhibition of proliferation MCF-7.
For assay [18], the system named is HeLa. The description is as above. Conditions: Homo sapiens, HeLa; 1 μM compound; read-out: Percent inhibition of proliferation HeLa. Format: cell-based.
The test system of assay [19] is MV4-11. The assay can be described thus: Anti-proliferative effects in leukemia panel. Type of assay: cell-based. Conditions: Homo sapiens, MV4-11; read-out: Anti-proliferative effects in leukemia panel (μM) MV4-11. As to the method: Molm-14 cells were the kind gift of Dr. Mark Levis from Johns Hopkins University. […] Cell lines were grown and maintained according to ATCC recommendations.
(§5) Cell lines were seeded into 96-well plates the afternoon prior to treatment. Approximately 18 hours later, compounds were semi-serially diluted in dimethyl sulfoxide (DMSO) and then growth medium, and added to cells. Plates were incubated for 72 hours prior to addition of Alamar Blue (Life Technologies. Carlsbad, CA). Plates were read after 4 additional hours of incubation at 37° C. using a Bio-Tek Synergy HT plate reader (Bio-Tek, Winooski. VT). Data was analyzed and graphed using GraphPad Prism Software (Graphpad. La Jolla, CA).

Assay [20] relates to THP-1. In words: Anti-proliferative effects in leukemia panel. The note with it: Homo sapiens. Format: cell-based. How it is done: (§6) Molm-14 cells were the kind gift of Dr. Mark Levis from Johns Hopkins University. THP-1, MV4-11, K-562 and MRC-5A cells were purchased from ATCC (ATCC, Manassas, VA). All cell lines were grown in 37° C. with 5% CO2 atmosphere with RPMI 1640 (Life technologies, Carlsbad. CA) supplemented with heat-inactivated 10% (V/V) fetal bovine serum. Cell lines were grown and maintained according to ATCC recommendations.
as §5

Assay [21] relates to K-562. The assay can be described thus: Anti-proliferative effects in leukemia panel. Type of assay: cell-based. The note with it: Homo sapiens, K562. How it is done:
as §6, §5

The subject of assay [22] is MOLM14. The assay can be described thus: Anti-proliferative effects in leukemia panel. The note with it: Homo sapiens, MOLM-14. Format: cell-based. As to the method: as §6, §5
[23] abbreviates: K562, 72 h, read-out: IC50 (proliferation inhibition) Cell line - K562.
The mark [24] stands for this setting: K562, Table 18, read-out: Inhibition of proliferation of K562 cell lines (CML).

Like-named read-outs stand apart in the source and are kept apart here. Some results are limits rather than exact numbers.

Chain of c-kit (P10721 26-976): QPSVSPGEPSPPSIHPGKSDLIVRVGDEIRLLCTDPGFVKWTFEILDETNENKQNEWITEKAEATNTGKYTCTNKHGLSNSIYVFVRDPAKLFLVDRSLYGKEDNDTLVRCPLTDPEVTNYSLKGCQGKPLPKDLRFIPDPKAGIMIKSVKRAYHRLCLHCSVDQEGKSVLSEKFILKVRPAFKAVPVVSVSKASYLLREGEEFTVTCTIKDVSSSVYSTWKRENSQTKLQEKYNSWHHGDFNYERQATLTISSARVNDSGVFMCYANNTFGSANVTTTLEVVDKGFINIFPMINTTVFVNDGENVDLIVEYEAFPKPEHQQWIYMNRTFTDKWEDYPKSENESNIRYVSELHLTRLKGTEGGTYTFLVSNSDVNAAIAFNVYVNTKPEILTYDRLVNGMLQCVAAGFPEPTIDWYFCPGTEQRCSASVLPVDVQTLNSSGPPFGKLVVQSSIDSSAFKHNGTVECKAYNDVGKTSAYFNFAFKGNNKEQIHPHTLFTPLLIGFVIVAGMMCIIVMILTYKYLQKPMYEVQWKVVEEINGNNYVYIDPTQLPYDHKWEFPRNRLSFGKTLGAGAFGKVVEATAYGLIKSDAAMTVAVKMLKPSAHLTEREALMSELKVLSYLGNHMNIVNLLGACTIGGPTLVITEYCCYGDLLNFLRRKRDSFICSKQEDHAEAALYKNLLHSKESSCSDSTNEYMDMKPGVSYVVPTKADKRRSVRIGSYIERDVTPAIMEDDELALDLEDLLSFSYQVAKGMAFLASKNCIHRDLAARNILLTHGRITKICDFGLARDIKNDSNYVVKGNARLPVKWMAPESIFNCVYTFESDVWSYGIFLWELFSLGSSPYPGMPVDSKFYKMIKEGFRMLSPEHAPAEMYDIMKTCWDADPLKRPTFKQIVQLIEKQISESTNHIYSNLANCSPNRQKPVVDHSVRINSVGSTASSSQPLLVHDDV
Chain of FLT3 (P36888 27-993): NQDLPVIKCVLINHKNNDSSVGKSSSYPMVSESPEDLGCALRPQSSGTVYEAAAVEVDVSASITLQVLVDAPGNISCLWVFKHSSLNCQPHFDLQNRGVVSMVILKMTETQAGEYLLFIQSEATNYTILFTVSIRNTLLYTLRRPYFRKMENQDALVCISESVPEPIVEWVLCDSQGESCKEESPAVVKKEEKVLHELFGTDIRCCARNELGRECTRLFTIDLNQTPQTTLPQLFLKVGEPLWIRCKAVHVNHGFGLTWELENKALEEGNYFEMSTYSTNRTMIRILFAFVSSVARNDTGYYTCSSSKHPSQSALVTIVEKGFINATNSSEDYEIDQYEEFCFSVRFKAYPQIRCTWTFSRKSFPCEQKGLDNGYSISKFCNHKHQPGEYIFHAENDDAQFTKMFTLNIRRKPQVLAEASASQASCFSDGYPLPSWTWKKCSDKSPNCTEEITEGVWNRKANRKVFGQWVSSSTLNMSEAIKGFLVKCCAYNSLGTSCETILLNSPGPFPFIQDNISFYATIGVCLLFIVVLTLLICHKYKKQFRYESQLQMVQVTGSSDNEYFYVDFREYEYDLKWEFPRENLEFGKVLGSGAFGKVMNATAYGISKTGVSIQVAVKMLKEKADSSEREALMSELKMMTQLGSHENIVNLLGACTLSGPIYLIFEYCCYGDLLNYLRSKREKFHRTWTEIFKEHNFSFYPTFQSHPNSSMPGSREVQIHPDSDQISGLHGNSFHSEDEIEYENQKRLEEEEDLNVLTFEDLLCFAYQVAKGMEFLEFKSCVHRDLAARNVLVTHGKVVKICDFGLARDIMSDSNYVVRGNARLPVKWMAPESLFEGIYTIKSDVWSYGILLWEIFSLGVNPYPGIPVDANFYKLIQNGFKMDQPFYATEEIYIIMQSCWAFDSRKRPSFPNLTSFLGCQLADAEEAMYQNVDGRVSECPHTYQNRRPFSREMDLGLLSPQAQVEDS
Chain of c-Src (P12931 whole entry, looked up): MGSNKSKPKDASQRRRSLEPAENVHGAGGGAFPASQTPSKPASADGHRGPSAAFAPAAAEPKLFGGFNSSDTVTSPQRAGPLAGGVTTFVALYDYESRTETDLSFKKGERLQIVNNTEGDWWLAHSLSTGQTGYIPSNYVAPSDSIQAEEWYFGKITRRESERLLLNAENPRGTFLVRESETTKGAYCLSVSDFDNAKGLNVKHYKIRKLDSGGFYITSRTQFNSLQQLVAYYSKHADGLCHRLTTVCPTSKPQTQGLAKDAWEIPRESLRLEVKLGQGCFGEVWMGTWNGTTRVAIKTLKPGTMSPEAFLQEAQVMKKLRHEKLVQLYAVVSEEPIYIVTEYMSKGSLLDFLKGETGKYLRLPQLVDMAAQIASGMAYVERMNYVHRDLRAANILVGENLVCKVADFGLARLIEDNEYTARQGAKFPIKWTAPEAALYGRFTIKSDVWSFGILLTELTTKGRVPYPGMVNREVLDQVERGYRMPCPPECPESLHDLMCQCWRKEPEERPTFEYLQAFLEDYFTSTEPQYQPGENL
Chain of FLT3 (ITD, F691L) (P36888 whole entry, looked up, stated change not applied): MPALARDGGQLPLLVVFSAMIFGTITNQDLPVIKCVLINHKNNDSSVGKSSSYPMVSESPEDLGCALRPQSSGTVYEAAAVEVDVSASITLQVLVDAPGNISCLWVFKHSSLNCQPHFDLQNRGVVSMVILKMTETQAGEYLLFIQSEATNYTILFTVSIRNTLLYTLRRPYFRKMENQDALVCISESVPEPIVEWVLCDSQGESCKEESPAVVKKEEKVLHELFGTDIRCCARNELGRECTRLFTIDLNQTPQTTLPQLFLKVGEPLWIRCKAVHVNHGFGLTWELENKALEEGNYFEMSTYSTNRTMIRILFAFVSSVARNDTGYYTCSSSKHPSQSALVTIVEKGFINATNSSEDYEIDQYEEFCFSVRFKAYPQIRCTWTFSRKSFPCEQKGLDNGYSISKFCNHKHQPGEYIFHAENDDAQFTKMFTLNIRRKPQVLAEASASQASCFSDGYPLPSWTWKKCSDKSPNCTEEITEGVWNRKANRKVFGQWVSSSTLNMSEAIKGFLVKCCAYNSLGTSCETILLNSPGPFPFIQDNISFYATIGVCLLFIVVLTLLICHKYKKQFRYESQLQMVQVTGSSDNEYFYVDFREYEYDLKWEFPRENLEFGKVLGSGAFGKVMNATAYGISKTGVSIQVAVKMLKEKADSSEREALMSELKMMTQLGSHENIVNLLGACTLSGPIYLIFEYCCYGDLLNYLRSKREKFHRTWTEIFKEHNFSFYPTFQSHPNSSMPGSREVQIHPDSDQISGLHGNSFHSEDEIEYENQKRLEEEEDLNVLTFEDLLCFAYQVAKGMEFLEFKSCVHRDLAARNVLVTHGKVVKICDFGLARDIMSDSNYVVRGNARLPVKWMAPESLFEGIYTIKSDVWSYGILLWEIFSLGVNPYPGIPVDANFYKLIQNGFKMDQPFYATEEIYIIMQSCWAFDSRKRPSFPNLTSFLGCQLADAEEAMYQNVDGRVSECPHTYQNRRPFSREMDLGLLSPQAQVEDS
Chain of FLT3 (ITD) (P36888 whole entry, looked up, change not shown): as the sequence (P36888 whole entry, looked up, stated change not applied) above
Chain of RET (P07949 29-1114): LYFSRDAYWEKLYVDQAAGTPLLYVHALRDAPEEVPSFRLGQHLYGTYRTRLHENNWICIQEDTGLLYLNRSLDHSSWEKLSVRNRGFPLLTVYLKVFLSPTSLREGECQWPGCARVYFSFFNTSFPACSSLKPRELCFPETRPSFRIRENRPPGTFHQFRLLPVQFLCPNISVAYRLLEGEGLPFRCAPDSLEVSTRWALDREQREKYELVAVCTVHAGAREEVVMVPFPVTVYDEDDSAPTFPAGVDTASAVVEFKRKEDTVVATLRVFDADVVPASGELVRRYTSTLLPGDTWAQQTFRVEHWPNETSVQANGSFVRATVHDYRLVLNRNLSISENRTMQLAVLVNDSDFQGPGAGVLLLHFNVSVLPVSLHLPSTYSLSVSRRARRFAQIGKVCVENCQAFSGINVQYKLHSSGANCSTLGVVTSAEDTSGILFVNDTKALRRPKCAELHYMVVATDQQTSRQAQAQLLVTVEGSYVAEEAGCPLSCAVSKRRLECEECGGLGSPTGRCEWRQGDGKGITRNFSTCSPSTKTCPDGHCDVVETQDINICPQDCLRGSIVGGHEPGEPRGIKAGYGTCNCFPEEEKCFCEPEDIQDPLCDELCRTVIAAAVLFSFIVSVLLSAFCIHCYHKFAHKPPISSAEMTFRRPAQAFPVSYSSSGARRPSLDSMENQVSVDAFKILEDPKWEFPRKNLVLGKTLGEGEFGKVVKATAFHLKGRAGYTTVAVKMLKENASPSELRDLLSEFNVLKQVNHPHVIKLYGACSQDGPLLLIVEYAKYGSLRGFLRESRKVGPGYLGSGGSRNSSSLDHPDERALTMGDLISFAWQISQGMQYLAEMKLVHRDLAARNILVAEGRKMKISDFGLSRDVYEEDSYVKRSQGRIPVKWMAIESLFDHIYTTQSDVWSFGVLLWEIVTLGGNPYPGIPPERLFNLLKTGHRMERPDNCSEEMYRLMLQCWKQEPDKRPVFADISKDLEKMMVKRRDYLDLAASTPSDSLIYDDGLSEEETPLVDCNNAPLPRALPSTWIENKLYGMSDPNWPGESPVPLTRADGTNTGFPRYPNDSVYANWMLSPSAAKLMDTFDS

With `CN(C)CC(O)CNC(=O)c1ccc(C#Cc2c(N)ncc3ccc(Cl)cc23)cc1` (centres unmarked) [Compound A15], in assay [1], the “inhibition of MV4-11 proliferation in words” value is on record as “potent”.
For the compound `COCCCNC(=O)c1ccc(C#Cc2c(N)ncc3ccc(Cl)cc23)cc1` [Compound A25], the “inhibition of MV4-11 proliferation in words” value in assay [1] was “inactive”.
For `Cc1ncc(C(=O)Nc2ccc(CN3CCN(C)CC3)c(C(F)(F)F)c2)cc1C#Cc1cnc(N)c2ncccc12` [HSN459, 5-((8-amino-1,7-naphthyridin-5-yl)ethynyl)-6-methyl-N-(4-((4-methylpiperazin-1-yl)methyl)-3-(trifluoromethyl)phenyl)nicotinamide], the dissociation constant Kd in assay [2] is 17 nM; in [4], 5.6 nM. Also, the IC50 in assay [3] was determined as 38 nM.
On to `Nc1ncc2ccc(Cl)cc2c1C#Cc1ccc(C(=O)NCCCN2CCCCC2)cc1` [Compound A10], for which, in [1], the “inhibition of MV4-11 proliferation in words” value is “potent”.
Take `Cc1ncc(C(=O)Nc2ccc(CN3CCN(C)CC3)c(C(F)(F)F)c2)cc1C#Cc1cnc(N)c2ccccc12` [HSN461, 5-((1-aminoisoquinolin-4-yl)ethynyl)-6-methyl-N-(4-((4-methylpiperazin-1-yl)methyl)-3-(trifluoromethyl)phenyl)nicotinamide]: the Kd in assay [2] came to 91 nM; in assay [4], 7.9 nM. Further, the values for the IC50 in assay [5] and in [3] were less than 1 nM and 157 nM, respectively.
As to `Cc1ccc(C(=O)NCCN2CCCCC2)cc1C#Cc1c(N)ncc2ccc(Cl)cc12` [HSN248], the IC50 in assay [6] is 180 ± 7.8 nM; in assay [5] it was 181 ± 6.5 nM; in assay [7] (setting [23]), 7 nM; in assay [7] (setting [24]) it was 7 ± 0.1 nM; in assay [8], 225 nM. In addition, the “proliferation inhibition in words, MV4-11 / AML” value in [5] is given as “only moderate inhibitors”. For the same compound, the inhibition at 1 µM was 98% in assay [9], 76% in [10], 100% in assay [17] and 100% in assay [18]. Moreover, the inhibition at 0.5 µM in assay [11] stood at 73%; in assay [12] it was 9%; in assay [13], 52%; in [14] it was 93%; in assay [15] it was 23%; in assay [16], 83%.
`CCN(CC)CCNC(=O)c1ccc(C)c(C#Cc2c(N)ncc3ccc(Cl)cc23)c1` [HSN247]: the IC50 came to 129 ± 8.2 nM in [6]; 154 ± 7.1 nM in [5]; 25 nM in [7] (setting [23]); 25.7 ± 0.31 nM in assay [7] (setting [24]); 154 nM in assay [8]. Moreover, in assay [5], the “proliferation inhibition in words, MV4-11 / AML” value was “only moderate inhibitors”. Moreover, the inhibition at 1 µM in assay [9] was 58%; in assay [10], 54%; in assay [17], 100%; in assay [18], 100%. Besides, the “% inhibition of FLT3 activity” value in assay [11] was 75%. Further, the inhibition at 0.5 µM in assay [11] is 74%; in assay [12], 6%; in [13], 3%; in assay [14] it was 86%; in assay [15] it was 3%; in assay [16] it was 77%.
Consider `Cc1ccc2cnc(N)c(C#Cc3cc(C(=O)Nc4ccc(CN5CCN(C)CC5)c(C(F)(F)F)c4)ccc3C)c2c1` [HSN379, 3-((3-amino-6-methylisoquinolin-4-yl)ethynyl)-4-methyl-N-(4-((4-methylpiperazin-1-yl)methyl)-3-(trifluoromethyl)phenyl)benzamide], for which the IC50 in [3] was found to be 13 nM.
Consider `N=C(N)c1ccc(/N=N/c2c(N)ncc3ccc(Br)cc23)cc1` [HSW630-1], for which the IC50 in assay [19] is 0.15 ± 0.01 µM; in assay [20] it was 1.2 µM; in [21], 3 µM; in assay [22], 0.15 ± 0.01 µM. Also, the inhibition at 0.5 µM in assay [14] was 68%.
Regarding `CCN(CC)CC(O)CNC(=O)c1ccc(C#Cc2c(N)ncc3ccc(Cl)cc23)cc1` (centres unmarked) [Compound A16], the “inhibition of MV4-11 proliferation in words” value in assay [1] is “potent”.
